Entries after “also recorded” stand apart in the source; their conditions may differ. Read-outs that look alike come from different tables or passages of the source.
Legend:
SapM [1] = target: T1, SapM (Mycobacterium tuberculosis, UniProt O53361); assay: biochemical; type: biochemical; conditions: for remaining activity at 100 µM: 0.5 h, read-out: %SA (percentage specific activity of SapM); for inhibition at 100 µM: read-out: inhibition of SapM activity (reduction in SA)
T1 construct: made in house; host or cells: Escherichia coli C41 (DE3)
T1 sequence (O53361 44-299): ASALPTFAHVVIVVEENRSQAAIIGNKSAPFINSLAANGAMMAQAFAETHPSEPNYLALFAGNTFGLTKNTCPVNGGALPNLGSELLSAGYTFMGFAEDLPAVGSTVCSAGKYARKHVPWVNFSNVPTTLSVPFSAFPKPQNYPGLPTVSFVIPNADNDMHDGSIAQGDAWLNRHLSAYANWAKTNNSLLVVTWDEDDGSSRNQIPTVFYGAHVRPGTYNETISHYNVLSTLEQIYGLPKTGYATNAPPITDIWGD

MptpA = MptpA (Mycobacterium tuberculosis, UniProt P9WIA1); assay: biochemical; conditions: pH 6
MptpB = MptpB (Mycobacterium tuberculosis, UniProt I6WXK4); assay: biochemical; conditions: pH 6
M. bovis BCG wild-type = type: cell-based; conditions: Raw 264.7 macrophages; 40 µM; 72 h post-infection; vs DMSO
Mtb H37Rv strain = assay: Mycobacterium tuberculosis infection assay in THP-1 macrophages; type: cell-based; conditions: resting THP-1 macrophages; 1 µM and 40 µM; 24 h and 72 h post infection
PTP1B = target: T2, PTP1B (Homo sapiens, UniProt P18031); assay: hPTP1B inhibition, pNPP assay; type: biochemical
T2 sequence (P18031 1-435): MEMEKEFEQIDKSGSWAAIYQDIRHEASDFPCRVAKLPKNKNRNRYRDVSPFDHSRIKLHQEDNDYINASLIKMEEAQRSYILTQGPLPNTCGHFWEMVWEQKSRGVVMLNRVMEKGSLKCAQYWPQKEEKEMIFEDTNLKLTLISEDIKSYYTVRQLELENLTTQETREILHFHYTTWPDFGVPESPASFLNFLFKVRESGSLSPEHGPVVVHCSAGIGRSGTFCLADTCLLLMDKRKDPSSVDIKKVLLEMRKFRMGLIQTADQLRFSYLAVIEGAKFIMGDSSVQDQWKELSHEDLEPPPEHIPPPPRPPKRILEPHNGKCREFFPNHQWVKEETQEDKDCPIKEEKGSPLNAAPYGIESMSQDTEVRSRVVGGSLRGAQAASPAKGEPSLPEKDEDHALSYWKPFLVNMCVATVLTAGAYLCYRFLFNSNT

SapM [2] = target: T1, SapM; assay: Type of inhibition of SapM, Lineweaver-Burk plots; type: biochemical
Text: To determine the type of inhibition different inhibitor concentrations were selected to yield around 30% and 75% inhibition for each concentration of pNPP. This ensures sufficient signal to obtain accurate data while allowing a significant inhibition effect. Velocity (V) was plotted as a function of pNPP concentration and fit in a Lineweaver–Burk plot (double-reciprocal) using GraphPad Prism 8.41. All assays were done in 96-well microplates and performed in triplicate in at least two independent experiments.

VHR = VHR (Homo sapiens, UniProt P51452); assay: hVHR inhibition, pNPP assay; type: biochemical
SapM [3] = target: T1, SapM; assay: Microscale thermophoresis of SapM binding
Description: Microscale thermophoresis (MST) was used to study the direct binding interaction of SapM with three compounds 1, 2 and 13. SapM was labelled with NTA-647nm dye which attaches to the 6-histidine tag. 100 nM NTA-647 was incubated with 200 nM SapM for 1-hour at 4 °C and then centrifuged at 20,000 rcf for 20 minutes at 4 °C in 20 mM HEPES, 200 mM NaCl pH 7.0. 10 mM compound was diluted to 500 μM in the same buffer. Binding checks were carried out with labelled SapM (5 nM) with and without 250 nM compound with LED power of 20% and a medium MST power in a Monolith Pico instrument and using standard capillaries. Binding analysis was performed with a doubling serial dilution from 250 nM with 16 dilutions and a constant concentration of 5 nM labelled SapM.

M. bovis BCG ΔsapM = type: cell-based; conditions: 40 µM
[4] = Compound precipitation in enzyme assays; type: physicochemical; conditions: SapM dose-response assay
[5] = compounds at 100 µM, relative to pNPP DMSO control

Sequence of MptpB (I6WXK4 whole entry, looked up): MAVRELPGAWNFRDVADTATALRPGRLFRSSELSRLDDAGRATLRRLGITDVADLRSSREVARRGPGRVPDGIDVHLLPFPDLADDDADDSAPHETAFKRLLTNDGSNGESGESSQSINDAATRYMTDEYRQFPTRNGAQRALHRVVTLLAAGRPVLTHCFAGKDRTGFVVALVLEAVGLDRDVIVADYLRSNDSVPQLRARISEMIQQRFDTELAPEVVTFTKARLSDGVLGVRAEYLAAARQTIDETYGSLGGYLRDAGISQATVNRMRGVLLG
Sequence of MptpA (P9WIA1 whole entry): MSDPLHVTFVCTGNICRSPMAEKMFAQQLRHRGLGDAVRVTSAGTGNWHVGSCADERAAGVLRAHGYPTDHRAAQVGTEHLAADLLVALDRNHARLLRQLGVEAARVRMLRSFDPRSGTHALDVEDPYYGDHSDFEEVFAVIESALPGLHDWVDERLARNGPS
Sequence of VHR (P51452 whole entry): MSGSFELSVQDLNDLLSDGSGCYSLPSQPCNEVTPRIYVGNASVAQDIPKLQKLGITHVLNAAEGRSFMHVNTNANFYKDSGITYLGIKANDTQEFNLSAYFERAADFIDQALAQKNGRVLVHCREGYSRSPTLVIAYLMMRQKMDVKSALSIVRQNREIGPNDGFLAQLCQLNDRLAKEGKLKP

Question: With `Oc1cc(O)c2c(c1)O[C@H](c1ccc(O)c(O)c1)[C@@H](O)C2` [Compound 33, (+)-Catechin] as the compound, how does the “%SA (percentage specific activity of SapM)” value (SapM [1]; [5]) read?
Answer: The value was 95.9 ± 12.3%.

Question: With `Oc1cc(O)c2c(c1)O[C@H](c1ccc(O)c(O)c1)[C@H](O)[C@H]2c1c(O)cc(O)c2c1O[C@H](c1ccc(O)c(O)c1)[C@H](O)C2` [Compound 31, Procyanidin B2] as the compound, how does the remaining activity at 100 µM (SapM [1]; [5]) read?
Answer: Its remaining activity at 100 µM is 100 ± 14.5%.

Question: Which results are given for `O.O.O=c1c(O)c(-c2ccc(O)c(O)c2)oc2cc(O)cc(O)c12` [Compound 28, Quercetin dehydrate]?
Answer: effect on SapM enzyme activity (SapM [1]; compounds at 100 µM): none or poor activity; %SA (percentage specific activity of SapM) (SapM [1]; [5]): 78.9 ± 9.2%

Question: With `Cc1cc(O)c2c(c1)C(=O)c1cc(O)cc(O)c1C2=O` [Compound 25, Emodin] as the compound, how does the remaining activity at 100 µM (SapM [1]; [5]) read?
Answer: Its remaining activity at 100 µM is 68.6 ± 7.2%.

Question: What about the inhibition at 100 µM (SapM [1]; compounds at 100 µM) of the same compound?
Answer: Its inhibition at 100 µM is roughly 30%.

Question: Which “%SA (percentage specific activity of SapM)” value (SapM [1]) does the source give for `N#CC(C#N)=Cc1ccc(O)cc1` [Compound 12, Tyrphostin 8] here?
Answer: The value was 104.2 ± 4.2%.

Question: And the “inhibition of SapM activity (reduction in SA)” value (SapM [1]; 100 µM)?
Answer: The value was “less than 21%”.

Question: What does the source list for `O=c1oc2c(cc1O)oc(=O)c1cc(O)c(O)c(O)c12` [Compound 2, Galloflavin]?
Answer: IC50 (MptpA; pNPP assay): 55.2 ± 1.1 µM; IC50 (MptpB; pNPP assay): > 100 µM; intracellular burden of wild-type M. bovis BCG (M. bovis BCG wild-type): reduced the intracellular burden; Mtb intracellular burden vs DMSO control (Mtb H37Rv strain): significant (****p < 0.0001) reduction; remaining activity at 100 µM (SapM [1]; [5]): 0%; effect on SapM enzyme activity (SapM [1]; compounds at 100 µM): completely abolished the enzymatic activity; also recorded: inhibits SapM activity completely; IC50 (SapM [1]; pNPP assay, dose-response): 9.3 ± 1.1 µM; IC50 (PTP1B): > 100 µM; mechanism of inhibition of SapM (SapM [2]): uncompetitive inhibitors; IC50 (VHR): > 100 µM; binding to SapM by MST (SapM [3]): confirmed; EC50 (SapM [3]; MST titration, read-out: Single species dose response EC50): 32 ± 16 µM; intracellular burden of ΔsapM (M. bovis BCG ΔsapM): did not further reduce the intracellular burden

Question: What does the source list for `N#CC(C#N)=C(N)/C(C#N)=C/c1ccc(O)cc1` [Compound 9, Tyrphostin AG 112]?
Answer: inhibition of SapM activity (reduction in SA) (SapM [1]; compounds at 100 µM): less than 21%; %SA (percentage specific activity of SapM) (SapM [1]; [5]): 88.7 ± 1.7%

Question: Which “%SA (percentage specific activity of SapM)” value (SapM [1]; [5]) does the source give for `C[C@H](O)[C@H](O)[C@H]1CNc2[nH]c(N)nc(=O)c2N1.Cl.Cl` [Compound 5, (6R)-BH4, reference compound] here?
Answer: The value was 33.3 ± 0.3%.

Question: And the IC50 (SapM [1]; pNPP assay, dose-response)?
Answer: The IC50 was 73.9 ± 1.2 µM.

Question: With `O=c1c(O)c(-c2cc(O)c(O)c(O)c2)oc2cc(O)cc(O)c12` [Compound 26, Myricetin] as the compound, how does the remaining activity at 100 µM (SapM [1]; [5]) read?
Answer: Its remaining activity at 100 µM is 84 ± 6.2%.

Question: And the “effect on SapM enzyme activity” value (SapM [1]; compounds at 100 µM)?
Answer: The value was “none or poor activity”.

Question: Which IC50 (MptpA; pNPP assay) does the source give for `N#CC(C#N)=Cc1cc(O)c(O)c(O)c1` [Compound 14, Tyrphostin AG 82] here?
Answer: The IC50 was 23.7 ± 1.1 µM.

Question: And the IC50 (MptpB; pNPP assay)?
Answer: The IC50 was greater than 100 µM.

Question: And the remaining activity at 100 µM (SapM [1]; [5])?
Answer: The remaining activity at 100 µM was 0%.

Question: And the “effect on SapM enzyme activity” value (SapM [1]; compounds at 100 µM)?
Answer: Its value is “completely abolished enzyme activity; also recorded: abolished enzyme activity completely”.

Question: And the IC50 (SapM [1]; pNPP assay, dose-response)?
Answer: Its IC50 is 14.5 ± 1 µM.

Question: And the “mechanism of inhibition of SapM” value (SapM [2])?
Answer: Its value is “uncompetitive inhibitors”.

Question: What does the source list for `Oc1cc(O)c2c(c1)O[C@@H](c1cc(O)c(O)c(O)c1)[C@H](O)C2` [Compound 30, (−)-Gallocatechin]?
Answer: remaining activity at 100 µM (SapM [1]; [5]): 60.4 ± 6.4%; inhibition at 100 µM (SapM [1]; compounds at 100 µM): ~40%

Question: With `O=c1c(-c2ccc(O)cc2)coc2cc(O)ccc12` [Compound 23, Daidzein] as the compound, how does the remaining activity at 100 µM (SapM [1]; [5]) read?
Answer: Its remaining activity at 100 µM is 108 ± 17.2%.

Question: With `O=c1c(-c2ccc(O)cc2)coc2cc(O)cc(O)c12` [Compound 24, Genistein] as the compound, how does the remaining activity at 100 µM (SapM [1]; [5]) read?
Answer: The remaining activity at 100 µM was 84.1 ± 6.4%.

Question: Which “%SA (percentage specific activity of SapM)” value (SapM [1]) does the source give for `N#Cc1c2nc3ccccc3nc2n2ccc(NC(=O)c3cccs3)cc12` [Compound 4, HI-TOPK-32] here?
Answer: The value was 20.5 ± 3.7%.

Question: What about the “concentration at which compound precipitates” value [4] of the same compound?
Answer: Its value is greater than 100 µM.

Question: With `CC(C)=CC[C@@H](O)C1=CC(=O)c2c(O)ccc(O)c2C1=O` [Compound 21, Shikonin] as the compound, how does the remaining activity at 100 µM (SapM [1]; [5]) read?
Answer: Its remaining activity at 100 µM is 88.9 ± 4.3%.

Question: For `N#C/C(=C\c1ccc(O)c(O)c1)C(=O)c1ccc(O)c(O)c1` [Compound 11, Tyrphostin AG 538], which “%SA (percentage specific activity of SapM)” value (SapM [1]; [5]) is on record?
Answer: Its value is 100.2 ± 0.3%.

Question: What does the source list for `CCCCCCCCCCCC(=O)c1c(O)c(C(=O)CCCCCCCCCCC)c(O)c(C2CC(c3ccc(O)cc3)Oc3cc(O)ccc32)c1O` (stereo not shown) [Compound 3, YM-26734]?
Answer: IC50 (MptpA): > 100 µM; IC50 (MptpB): > 100 µM; %SA (percentage specific activity of SapM) (SapM [1]): 0%; IC50 (SapM [1]): 19.8 ± 1.1 µM; effect on SapM enzyme activity (SapM [1]): completely abolished the enzymatic activity

From article PMC8027839 (Scientific Reports, 2021)
